Assay results: US11746139B2, “IL-7Rαγc binding compounds” (MEDIKINE, INC., priority 2020, dated 2023)

Biological target: IL-7Rα (Homo sapiens, UniProt P16871)
Test: Competition binding ELISA with bn407::NA-HRP precomplex
Settings: bn407:NA-HRP 10 nM final; read-out: Competitive Binding ELISA bn407:NA-HRP (10 nMf) IC50 M

Chain of IL-7Rα (P16871 21-236): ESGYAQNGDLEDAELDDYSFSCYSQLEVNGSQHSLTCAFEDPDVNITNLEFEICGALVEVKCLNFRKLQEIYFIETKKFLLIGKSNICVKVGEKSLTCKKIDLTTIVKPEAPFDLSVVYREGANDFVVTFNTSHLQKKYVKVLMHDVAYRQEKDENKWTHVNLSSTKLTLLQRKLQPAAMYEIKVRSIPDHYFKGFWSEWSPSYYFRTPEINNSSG

Row | Compound | IC50 [nM]
1 | CC[C@H](C)[C@H](N)C(=O)N1CCC[C@H]1C(=O)N[C@@H](Cc1c[nH]c2ccccc12)C(=O)N[C@H]1CSSC[C@@H](C(=O)N[C@@H](C)C(=O)N[C@@H](Cc2c[nH]c3ccccc23)C(=O)N[C@@H](CC(C)C)C(=O)N[C@@H](CCCCN)C(=O)N[C@@H](CCC(N)=O)C(=O)N[C@@H](CCSC)C(=O)NCC(=O)NCC(=O)O)NC(=O)[C@H](CCC(N)=O)NC(=O)[C@H](CC(C)C)NC(=O)CNC(=O)CNC(=O)[C@@H]2CCCN2C(=O)[C@H](CC(=O)O)NC(=O)[C@H](CC(C)C)NC(=O)[C@H]([C@@H](C)O)NC1=O [SEQ ID NO: 429, I P W C T L D P G G L Q C A W L K Q M] | 466
2 | CC[C@H](C)[C@H](N)C(=O)N1CCC[C@H]1C(=O)N[C@@H](Cc1c[nH]c2ccccc12)C(=O)N[C@H]1CSSC[C@@H](C(=O)N[C@@H](C)C(=O)N[C@@H](Cc2ccccc2)C(=O)N[C@@H](CC(C)C)C(=O)N[C@@H](CCCNC(=N)N)C(=O)N[C@@H](CCC(N)=O)C(=O)N[C@@H](CCSC)C(=O)NCC(=O)NCC(=O)O)NC(=O)[C@H](CCC(N)=O)NC(=O)[C@H](CC(C)C)NC(=O)CNC(=O)CNC(=O)[C@@H]2CCCN2C(=O)[C@H](CC(=O)O)NC(=O)[C@H](CC(C)C)NC(=O)[C@H]([C@@H](C)O)NC1=O [SEQ ID NO: 422, I P W C T L D P G G L Q C A F L R Q M] | 903
3 | CC[C@H](C)[C@H](N)C(=O)N1CCC[C@H]1C(=O)N[C@@H](Cc1c[nH]c2ccccc12)C(=O)N[C@H]1CSSC[C@@H](C(=O)N[C@@H](C)C(=O)N[C@@H](Cc2ccc(O)cc2)C(=O)N[C@@H](CC(C)C)C(=O)N[C@@H](CCCNC(=N)N)C(=O)N[C@@H](CCC(N)=O)C(=O)N[C@@H](CCSC)C(=O)NCC(=O)NCC(=O)O)NC(=O)[C@H](CCC(N)=O)NC(=O)[C@H](CC(C)C)NC(=O)CNC(=O)CNC(=O)[C@@H]2CCCN2C(=O)[C@H](CC(=O)O)NC(=O)[C@H](CC(C)C)NC(=O)[C@H]([C@@H](C)O)NC1=O [SEQ ID NO: 423, I P W C T L D P G G L Q C A Y L R Q M] | 664
4 | CC[C@H](C)[C@H](N)C(=O)N1CCC[C@H]1C(=O)N[C@@H](Cc1c[nH]c2ccccc12)C(=O)N[C@H]1CSSC[C@@H](C(=O)N[C@@H](C)C(=O)N[C@@H](Cc2c[nH]c3ccccc23)C(=O)N[C@@H](CC(C)C)C(=O)N[C@@H](CCCNC(=N)N)C(=O)N[C@@H](CCC(N)=O)C(=O)N[C@@H](CCSC)C(=O)NCC(=O)NCC(=O)O)NC(=O)[C@H](CCC(N)=O)NC(=O)[C@H](CC(C)C)NC(=O)CNC(=O)CNC(=O)[C@@H]2CCCN2C(=O)[C@H](CC(=O)O)NC(=O)[C@H](CC(C)C)NC(=O)[C@H]([C@@H](C)O)NC1=O [SEQ ID NO: 420, I P W C T L D P G G L Q C A W L R Q M] | 705
5 | CC[C@H](C)[C@H](N)C(=O)N1CCC[C@H]1C(=O)N[C@@H](Cc1c[nH]c2ccccc12)C(=O)N[C@H]1CSSC[C@@H](C(=O)N[C@@H](C)C(=O)N[C@@H](Cc2c[nH]c3ccccc23)C(=O)N[C@@H](CC(C)C)C(=O)N[C@@H](C)C(=O)N[C@@H](CCC(N)=O)C(=O)N[C@@H](CCSC)C(=O)NCC(=O)NCC(=O)O)NC(=O)[C@H](CCC(N)=O)NC(=O)[C@H](CC(C)C)NC(=O)CNC(=O)CNC(=O)[C@@H]2CCCN2C(=O)[C@H](CC(=O)O)NC(=O)[C@H](CC(C)C)NC(=O)[C@H]([C@@H](C)O)NC1=O [SEQ ID NO: 428, I P W C T L D P G G L Q C A W L A Q M] | 490
6 | CC[C@H](C)[C@H](N)C(=O)N1CCC[C@H]1C(=O)N[C@@H](Cc1c[nH]c2ccccc12)C(=O)N[C@H]1CSSC[C@@H](C(=O)N[C@@H](C)C(=O)N[C@@H](Cc2c[nH]c3ccccc23)C(=O)N[C@@H](CC(C)C)C(=O)N[C@@H](C)C(=O)N[C@@H](C)C(=O)N[C@@H](C)C(=O)NCC(=O)NCC(=O)O)NC(=O)[C@H](CCC(N)=O)NC(=O)[C@H](CC(C)C)NC(=O)CNC(=O)CNC(=O)[C@@H]2CCCN2C(=O)[C@H](CC(=O)O)NC(=O)[C@H](CC(C)C)NC(=O)[C@H]([C@@H](C)O)NC1=O [SEQ ID NO: 434, I P W C T L D P G G L Q C A W L A A A] | 602
